From patent US20260159528A1, “HETEROCYCLIC COMPOUNDS AS TRIGGERING RECEPTOR EXPRESSED ON MYELOID CELLS 2 AGONISTS AND METHODS OF USE” (Vigil Neuroscience, Inc., priority 2021, published 2026)

What follows are molecules tested against T1, human TREM2 (Homo sapiens, UniProt Q9NZC2) (assay: TREM2 agonist potency by cellular Syk phosphorylation (AlphaLisa) in HEK293T-hTREM2 cells). Conditions: Table D-2; HEK293 cells expressing human TREM2 and DAP12; pSyk AlphaLisa.
T1 construct: expressed in transfected cells; host or cells: HEK293T
T1 sequence (Q9NZC2 19-230): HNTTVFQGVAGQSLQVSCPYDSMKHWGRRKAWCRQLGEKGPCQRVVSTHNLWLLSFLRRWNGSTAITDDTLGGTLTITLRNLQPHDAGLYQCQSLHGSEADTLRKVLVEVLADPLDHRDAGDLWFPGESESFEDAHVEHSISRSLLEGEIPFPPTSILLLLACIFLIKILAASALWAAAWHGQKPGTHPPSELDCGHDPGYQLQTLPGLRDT
T1 sequence (O43914 22-113 partner): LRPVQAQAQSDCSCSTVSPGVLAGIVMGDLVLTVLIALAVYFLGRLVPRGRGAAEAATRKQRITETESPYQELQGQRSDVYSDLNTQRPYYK
Assay type: cell-based
Procedure: In vitro Measurement of Triggering Receptor Expressed on Myeloid Cells 2 activity using cellular phosphorylation of Spleen Tyrosine Kinase (“Syk”) Assays
Measurement of TREM2 agonist potency was done using a HEK cell line expressing human TREM2 and DAP12 (HEK293T-hTREM2 cells). Binding of small molecules to, and activation of, TREM2 increases the phosphorylation of Syk. The resultant levels of Syk phosphorylation are measured using a commercial AlphaLisa reagent kit. To perform the assay, HEK-hTREM2 cells were plated at 14,000 cells per well in a 384 well plate, in 25 µL of complete growth media and incubated at 37° C., 5% CO2 for 20-24 hours.
Prior to the assay, test compounds were diluted in the 384 well plates in assay buffer and allowed to equilibrate for 30 minutes. Growth media was removed from cell plates by inversion on blotting paper, and 25 μL of test articles in assay buffer was added to cells. Cells were incubated for 45 minutes at room temperature. After 45 minutes, assay buffer was removed and 10 μL of lysis buffer was added. Plates were shaken for 20 minutes at 350 RPM at room temperature. After complete lysis, AlphaLisa reagents were added to the lysate, and fluorescence intensity was measured using a Perkin Elmer Envision plate reader. Intensities were used to generate a standard curve, and % activation was calculated. Curve fitting was performed using Prism v9 software, log(agonist) vs response—variable slope (four parameters), and EC50s were calculated from the curve fit.
The results presented in Table D have been generated with the in vitro assay described above. This assay may be used to test any of the compounds described herein to assess and characterize a compound's ability to act as an agonist of TREM2.

EC50 [µM]	Compound
0.05 to 0.5	CN(C)c1nc2nc(N3CCC(F)(F)C(c4cnn(C5CC5)c4)C3)nc(-c3ccc(C(F)(F)F)cc3F)c2s1 (racemic) [Compound I-185, 5-(3-(1-cyclopropyl-1H-pyrazol-4-yl)-4,4-difluoropiperidin-1-yl)-7-(2-fluoro-4-(trifluoromethyl)phenyl)-N,N-dimethylthiazolo[4,5-d]pyrimidin-2-amine]
0.05 to 0.5	Cc1cc(C2CN(c3nc(-c4ccc(C(F)(F)F)cc4F)c4sc(N(C)C)nc4n3)CCC2(F)F)ccn1 (racemic) [Compound I-188, 5-(4,4-difluoro-3-(2-methylpyridin-4-yl)piperidin-1-yl)-7-(2-fluoro-4-(trifluoromethyl)phenyl)-N,N-dimethylthiazolo[4,5-d]pyrimidin-2-amine]
0.05 to 0.5	Cc1cc(C2CCCN(c3nc(-c4ccc(C(F)(F)F)cc4F)c4sc(N(C)C)nc4n3)C2)ccn1 (racemic) [Compound I-196, 7-(2-fluoro-4-(trifluoromethyl)phenyl)-N,N-dimethyl-5-(3-(2-methylpyridin-4-yl)piperidin-1-yl)thiazolo[4,5-d]pyrimidin-2-amine]
≤ 0.05	CN(C)c1nc2nc(C3CCOC(c4ccc(=O)n(C)c4)C3)nc(-c3ccc(F)cc3F)c2s1 (racemic) [Compound I-288, 5-[4-[7-(2,4-difluorophenyl)-2-(dimethylamino)thiazolo[4,5-d]pyrimidin-5-yl]tetrahydropyran-2-yl]-1-methyl-pyridin-2-one]
0.05 to 0.5	CN(C)c1nc2nc([C@@H]3CCO[C@@H](c4ccc(=O)n(C)c4)C3)nc(-c3ccc(F)cc3F)c2s1 (racemic) [Compound I-289, 5-[(2R,4R)-4-[7-(2,4-difluorophenyl)-2-(dimethylamino)thiazolo[4,5-d]pyrimidin-5-yl]tetrahydropyran-2-yl]-1-methyl-pyridin-2-one]
0.5 to 3	CCN(C)c1nc2nc(N3C[C@@H](C)O[C@@H](c4cnn(C5CC5)c4)C3)nc(-c3ccc(Cl)cc3F)c2s1 (single isomer, unassigned) [Compound I-119]
0.05 to 0.5	CN(C)c1nc2nc([C@H]3CCO[C@@H](c4cnn(C5CC5)c4)C3)nc(-c3ccc(C(F)(F)F)cc3F)c2s1 (single isomer, unassigned) [Compound I-134]

Continued, molecule first:

Compound	EC50 [µM]
C[C@@H]1CN(c2nc(-c3ccc(Cl)cc3F)c3sc(N(C)C)nc3n2)C[C@H](c2cnn(C3CC3)c2)O1 (racemic) [Compound I-22, 7-(4-chloro-2-fluoro-phenyl)-N,N-dimethyl-5-[rac-(2S,6R)-2-(1-cyclopropylpyrazol-4-yl)-6-methyl-morpholin-4-yl]thiazolo[4,5-d]pyrimidin-2-amine]	0.05 to 0.5
CN(C)c1nc2nc([C@H]3CCO[C@@H](c4cnn(C5CC5)c4)C3)nc(-c3ccc(Cl)cc3F)c2s1 (single isomer, unassigned) [Compound I-79]	≤ 0.05
C[C@@H]1CN(c2nc(-c3ccc(F)cc3F)c3sc(N(C)C)nc3n2)C[C@H](c2cnn(C3CC3)c2)O1 (single isomer, unassigned) [Compound I-84]	≤ 0.05
CN(C)c1nc2nc([C@H]3CCO[C@@H](c4cnn(C5CC5)c4)C3)nc(-c3ccc(F)cc3F)c2s1 (single isomer, unassigned) [Compound I-89]	0.05 to 0.5
CNc1nc2nc(N3C[C@@H](C)O[C@@H](c4cnn(C5CC5)c4)C3)nc(-c3ccc(Cl)cc3F)c2s1 (single isomer, unassigned) [Compound I-94]	0.05 to 0.5
CC(=O)N(C)c1nc2nc(N3C[C@@H](C)O[C@@H](c4cnn(C5CC5)c4)C3)nc(-c3ccc(Cl)cc3F)c2s1 (single isomer, unassigned) [Compound I-99]	0.05 to 0.5
C[C@@H]1CN(c2nc(-c3ccc(Cl)cc3F)c3sc(N(C)CCO)nc3n2)C[C@H](c2cnn(C3CC3)c2)O1 (single isomer, unassigned) [Compound I-104]	0.05 to 0.5
C[C@@H]1CN(c2nc(-c3ccc(Cl)cc3F)c3sc(N(C)CCF)nc3n2)C[C@H](c2cnn(C3CC3)c2)O1 (single isomer, unassigned) [Compound I-114]	0.05 to 0.5
